Results taken from ChEMBL document CHEMBL1136875, “Regioselective preparation of 5-hydroxypropranolol and 4'-hydroxydiclofenac with a fungal peroxygenase” (Bioorg Med Chem Lett, 2009).

How the values were obtained:
Priestia megaterium [1] = experiment: Activity of Bacillus megaterium CYP450 D6H10 mutant assessed as conversion of diclofenac to 4'-hydroxydiclofenac at 5 mM in presence of 1 mM H2O2 and 4 mM ascorbic acid
[2] = molecular target: T1, Aromatic peroxygenase (Cyclocybe aegerita) (UniProt B9W4V6); experiment: Activity of Agrocybe aegerita peroxygenase assessed as conversion of diclofenac to 4'-hydroxydiclofenac at 5 mM in presence of 5 mM H2O2 and 4 mM ascorbic acid
T1 sequence (whole entry): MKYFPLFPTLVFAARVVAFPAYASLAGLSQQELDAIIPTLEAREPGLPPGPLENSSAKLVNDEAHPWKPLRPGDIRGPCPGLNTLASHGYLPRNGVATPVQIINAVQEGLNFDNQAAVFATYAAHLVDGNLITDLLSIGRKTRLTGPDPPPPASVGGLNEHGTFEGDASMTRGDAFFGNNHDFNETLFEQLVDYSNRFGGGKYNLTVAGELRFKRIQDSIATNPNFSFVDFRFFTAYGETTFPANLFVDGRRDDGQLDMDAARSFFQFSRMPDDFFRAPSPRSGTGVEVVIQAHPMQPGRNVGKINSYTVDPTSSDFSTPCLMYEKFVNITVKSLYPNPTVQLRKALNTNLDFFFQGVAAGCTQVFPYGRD

[3] = molecular target: T1, Aromatic peroxygenase (Cyclocybe aegerita); experiment: Activity of Agrocybe aegerita peroxygenase assessed as conversion of propranolol to 5-hydroxypropranolol at 5 mM in presence of 5 mM H2O2 and 4 mM ascorbic acid
Priestia megaterium [4] = experiment: Activity of Bacillus megaterium CYP450 D6H10 mutant assessed as conversion of propranolol to 5-hydroxypropranolol at 5 mM in presence of 1 mM H2O2 and 4 mM ascorbic acid

Activity (Priestia megaterium [1]) [%] | Activity [2] [%] | Activity [3] [%] | Activity (Priestia megaterium [4]) [%] | SMILES
30 | 30 |  |  | O=C(O)Cc1ccccc1Nc1c(Cl)cccc1Cl
 |  | 13.6 | 0.5 | CC(C)NCC(O)COc1cccc2ccccc12 (centres undefined)
